Assays:
[1] = system: murine DC cells; assay: LPS-induced IL-12, TNF-α and IL-10 production by bone marrow derived dendritic cells; type: cell-based, murine (C57BL/7); settings: murine BM-derived DC; compound 0.01-100 μg/ml 1 h 30 before LPS 1 μg/ml; 20 h; ELISA
Description: Femora and tibiae from two male C57BL/7, 6 week-old (Charles River Laboratories France), were removed, stripped of muscles and tendons, and desinfected with 70% ethanol. Both ends of each bone were cut and the marrow was flushed with HBSS (Gibco BRL) using a syringe with a 26-gauge needle. The resulting cell suspension was centrifuged for 5 min. at 500 g and washed in HBSS. The cells were resuspended at 3×10^5 cells/ml in RPMI-1640 (Gibco BRL) supplemented with 2 mM L-glutamin (Sigma), 100 U/ml penicillin (Sigma), 100 μg/ml streptomycin (Sigma), 50 μM β-mercaptoethanol (Sigma), 10% heat-inactivated FCS (Sigma) and 15 ng/ml murine rGM-CSF (R&D).
To generate bone marrow (BM) derived dendritic cells (DC), BM leukocytes were cultured in 100-mm bacteriological petri dishes (Falcon 1029) for 8 days at 37° C. in 5% CO2. On day 0, 10 ml of cell suspension were seeded per dish. On day 3, another 10 ml of freshly prepared medium were added to each plate and on day 6, 9 ml of top medium were carefully removed from each plate and replaced by 10 ml of fresh medium.
Non-adherent cells of the 8-day old BM cell cultures were collected, centrifuged for 5 min. at 500 g, and resuspended at 1.25×10^6 cells/ml in supplemented RPMI containing 10 ng/ml GM-CSF. The cells were then seeded in 24-well tissue culture plates ([…]) and incubated for 1 h 30 at 37° C. in 5% CO2 in the absence or presence of OM-294-DP or OM-197-MP-AC (0.01-100 μg/ml/200 μl/well). LPS (E.coli O26:B6, Sigma), was then added at 1 μg/ml, and the plates were further incubated. After 20 h incubation, the supernatants were collected for analysis of cytokines. IL-12p70, IL-10, and TNF-α concentrations in DC culture supernatants were measured by ELISA using OptEIA matched Ab pairs from BD Pharmingen. Supersignal ELISA Pico chemiluminescent peroxidase substrate (BD Pharmingen) was used for the detection by luminometry (Wallac 1420 multilabel counter Victor-2). The assays were performed according to manufacturer's instructions.
FIG. 1: IL-12 (left panels) and IL-10 (right panels) secretion by murine DC stimulated by LPS (1 μg/ml) alone, or first during 90 minutes with the indicated concentrations (in μg/ml) of OM-197-MP-AC (A) or 294-DP (B), and then by LPS (1 μg/ml) for 20 additional hours. The supernatants were collected from the DC cultures and analyzed by ELISA for the presence of IL-12 and IL-10.
FIG. 2: TNF-α secretion by murine DC stimulated by LPS (1 μg/ml) alone, or first during 90 minutes with the indicated concentrations (in μg/ml) of 294-DP (294), or of OM-197-MP-AC (197), and then by LPS (1 μg/ml) for 20 additional hours. The supernatants were collected from the DC cultures and analyzed by ELISA for the presence of TNF-α.

[2] = system: LACK-sensitized and challenged Balb/c ByJ mice; assay: LACK-induced allergic asthma model, prophylactic i.p. treatment; type: in vivo; settings: 1 mg/Kg i.p. prophylactic
Description: Females Balb/c ByJ mice of 6-week old were purchased from the Centre d'Elevage Janvier (CERJ, Le Genest-St-lsle, France). All the mice were sensitised by 2 i.p. injections of 10 μg LACK protein precipitated in 2 mg of Alum (PerBio Science France SAS, Brebières, France) at days 0 and 7.
Animals were divided in groups, as follow: • LACK-sensitized and saline-challenged mice (4 mice) • LACK-sensitized and challenged mice (8 mice) • OM-197-MP-AC-treated, LACK-sensitized and challenged mice (8 mice)
Mice of the third group were treated intraperitoneally with 1 mg/Kg (20 μg per mouse) of OM-197-MP-AC. Mice were treated on days: −1, 1, 2, 3, 6, 8, 9, 10 and 11. From day 16 to day 21, mice of groups B and C were exposed to a daily 20-min aerosol challenge of a LACK solution (0.15%) whereas mice of the saline group received a saline solution as control.
AHR was measured for all the mice one day after the last antigen challenge by whole-body plethysmography (Emka) in response to increasing concentrations (6-25 mg/ml) of inhaled methacholine (acetyl methyl choline, Sigma). AHR is expressed as enhanced pause (Penh, see FIG. 4), a dimensionless parameter perfectly correlated to airway compliance and resistance calculated value, which correlates with measurement of airway resistance, impedance, and intrapleural pressure.
All the mice were bled by heart puncture one day after the last aerosol. Total IgE were quantified by ELISA using rat EM-95 anti-IgE mAbs as coating antibody and rat anti-IgE mAbs coupled to biotin as second antibody as described (Julia et al., 2002).
Individual mice were bled and a canula was inserted into their trachea. Lungs were washed 3 times with 1 ml of warmed PBS. Cells were washed with PBS, resuspended in 300 μl, and counted using a Burker-Türk chamber. For differential BAL cell counts, cytospin preparations were made and stained with Wright/Giemsa coloration. The respective numbers of neutrophils, eosinophils, and other mononuclear cells were determined by microscopic examination. Only the percentage of eosinophils (FIG. 5) is reported here.
To investigate lung cytokine contents of treated and untreated animals, protein extracts were prepared from lungs of LACK-sensitized and PBS-challenged wt mice (group “Control”), LACK-sensitized and challenged wt mice (group Asthma”), OM-197-MP-AC-treated wt mice (group “OM-197”). IL-4, IL-5, IL-13 contents were analyzed by multiplex analysis using FACSArray.
Treated or untreated LACK-sensitized mice (see above) were next challenged with daily aerosol of LACK for five consecutive days. One day after the last aerosol, AHR was measured by whole-body plethysmography in response to increasing concentrations of aerosolized methacholine.
To further investigate the effects of prophylactic OM-197-MP-AC on allergic airway inflammation, proteins were extracted from lungs of both treated and untreated WT mice, and cytokines known to play a important role in asthma (IL-4, IL-5 and IL-13) were quantified by multiplex analysis using CBA array beads and FACSarray. Data were normalized to the total quantity of proteins and given as pg of cytokine per mg of lung proteins.

[3] = lung protein extracts, CBA/FACSArray

CCCCCCCCCCCC(=O)O[C@H](CCCCCCCCCCC)CC(=O)N[C@@H](CCOP(=O)(O)O)C(=O)NCCC[C@H](COC(=O)CCCCCN)NC(=O)C[C@H](O)CCCCCCCCCCC [OM-197-MP-AC, (3S, 9R)-3-[(R)-3-dodecanoyloxytetradecanoylamino]-4-oxo-5-aza-9-[(R)-3-hydroxytetradecanoylamino]-decan-1, 10-diol 1-dihydrogenophosphate 10-(6-aminohexanoate)]
LPS-induced production of IL-10 [1]: increase
LPS-induced production of IL-12 [1]: decrease
LPS-induced production of TNF-α [1]: decrease
Eosinophils in BAL, less than untreated control mice [2]: 3 times less
Total IgE in sera, less than untreated sensitized, challenged mice ([2]; ELISA): 2 fold less
Amount of KC produced in lungs ([2]; lung protein extracts): reduced by half
Lung IFN-γ, less than untreated mice ([2]; lung protein extracts): 2 times less
Lung IL-6, less than untreated mice ([2]; lung protein extracts): 1.5 times less
Lung MCP-1, less than untreated animals ([2]; lung protein extracts): 1.8 times less
Lung IL-4, less than untreated mice [2, 3]: 5 times less
Lung IL-5, less than untreated mice [2, 3]: 5 times less
Lung IL-13, less than untreated mice [2, 3]: 3.5 times less
Airway hyperresponsiveness (AHR, Penh) to methacholine ([2]; whole-body plethysmography one day after last challenge): did not exhibit AHR
